From ChEMBL document CHEMBL1201862, “PubChem BioAssay data set” (2004)
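48-hour exposure; five concentrations; linearly interpolated endpoints. GI50: concentration for 50% inhibition of growth.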 Active and inactive are the calls of the source. Rule as the data show it: active = GI50 up to about 1.1 µM and inactive = higher.

Experiments:
Experiment in all cases: DTP human tumour cell line panel, 48 h
786-0 = test system: 786-0
HCT-15 = test system: HCT-15
NCI/ADR-RES = test system: NCI/ADR-RES
NCI-H23 = test system: NCI-H23
RPMI-8226 = test system: RPMI-8226
OVCAR-4 = test system: OVCAR-4
SN12C = test system: SN12C
SK-MEL-28 = test system: SK-MEL-28
OVCAR-8 = test system: OVCAR-8
SK-OV-3 = test system: SK-OV-3
MDA-MB-435 = test system: MDA-MB-435
SF-295 = test system: SF-295
NCI-H460 = test system: NCI-H460
IGROV-1 = test system: IGROV-1
HOP-92 = test system: HOP-92
SNB-19 = test system: SNB-19
A549 = test system: A549
MOLT-4 = test system: MOLT-4
COLO 205 = test system: COLO 205
T47D = test system: T47D
OVCAR-5 = test system: OVCAR-5
UO-31 = test system: UO-31
HT-29 = test system: HT-29
UACC-62 = test system: UACC-62
NCI-H226 = test system: NCI-H226
SF-539 = test system: SF-539
SNB-75 = test system: SNB-75
OVCAR-3 = test system: OVCAR-3
UACC-257 = test system: UACC-257
PC-3 = test system: PC-3
EKVX = test system: EKVX
HCT-116 = test system: HCT-116
BT-549 = test system: BT-549
TK-10 = test system: TK-10
Hs-578T = test system: Hs-578T
SK-MEL-2 = test system: SK-MEL-2
HOP-62 = test system: HOP-62
ACHN = test system: ACHN
MCF7 = test system: MCF7
DU-145 = test system: DU-145
M14 = test system: M14
K562 = test system: K562
SR = test system: SR
SK-MEL-5 = test system: SK-MEL-5
A498 = test system: A498
MDA-N = test system: MDA-N
SW-620 = test system: SW-620
U-251 = test system: U-251
Malme-3M = test system: Malme-3M
HL-60 = test system: HL-60
HCC 2998 = test system: HCC 2998
CCRF-CEM = test system: CCRF-CEM
NCI-H522 = test system: NCI-H522
KM12 = test system: KM12
MDA-MB-231 = test system: MDA-MB-231
SF-268 = test system: SF-268
CAKI-1 = test system: CAKI-1
LOX IMVI = test system: LOX IMVI
RXF 393 = test system: RXF 393

Measured: GI50

C/C(=N\Nc1nc2ccccc2o1)c1ncccn1
inactive: SNB-75 1.85 µM
active: 786-0 < 0.0252 µM | NCI/ADR-RES < 0.0163 µM | NCI-H23 0.123 µM | RPMI-8226 0.0137 µM | OVCAR-4 < 0.01 µM | SN12C < 0.0158 µM | SK-MEL-28 0.0405 µM | OVCAR-8 < 0.01 µM | SK-OV-3 0.0312 µM | MDA-MB-435 0.0573 µM | SF-295 0.0824 µM | NCI-H460 < 0.0234 µM | IGROV-1 0.0184 µM | HOP-92 0.145 µM | SNB-19 0.163 µM | A549 0.0908 µM | MOLT-4 < 0.01 µM | COLO 205 < 0.01 µM | T47D < 0.01 µM | OVCAR-5 < 0.0267 µM | UO-31 < 0.0313 µM | HT-29 < 0.01 µM | UACC-62 0.0646 µM | NCI-H226 0.118 µM | SF-539 0.043 µM | OVCAR-3 0.0136 µM | UACC-257 < 0.022 µM | PC-3 < 0.0273 µM | EKVX < 0.0172 µM | HCT-116 < 0.0175 µM | BT-549 0.643 µM | TK-10 0.0675 µM | Hs-578T 0.984 µM | SK-MEL-2 0.175 µM | HOP-62 0.0908 µM | ACHN < 0.0165 µM | MCF7 0.0121 µM | DU-145 0.0811 µM | M14 < 0.0192 µM | K562 0.012 µM | SR < 0.02 µM | SK-MEL-5 0.0574 µM | A498 0.332 µM | MDA-N 0.3 µM | SW-620 < 0.01 µM | U-251 0.0213 µM | Malme-3M < 0.01 µM | HL-60 < 0.01 µM | HCC 2998 0.141 µM | CCRF-CEM < 0.01 µM | NCI-H522 < 0.01 µM | KM12 0.817 µM | MDA-MB-231 < 0.0208 µM | SF-268 0.32 µM | CAKI-1 < 0.01 µM | LOX IMVI 0.0115 µM
< 0.0211 µM: HCT-15

Nc1ncnc2c1ncn2[C@@H]1O[C@H](C(=O)O)[C@@H](O)[C@H]1O [5'-CARBOXY ADENOSINE]
inactive: 786-0 > 100 µM | NCI/ADR-RES > 100 µM | NCI-H23 > 100 µM | RPMI-8226 > 100 µM | OVCAR-4 > 100 µM | SN12C > 100 µM | SK-MEL-28 > 100 µM | OVCAR-8 > 100 µM | SK-OV-3 > 100 µM | MDA-MB-435 > 100 µM | SF-295 > 100 µM | NCI-H460 > 100 µM | IGROV-1 > 100 µM | HOP-92 > 100 µM | SNB-19 > 100 µM | A549 > 100 µM | MOLT-4 > 100 µM | COLO 205 > 100 µM | T47D > 100 µM | OVCAR-5 > 100 µM | UO-31 > 100 µM | HT-29 > 100 µM | UACC-62 > 100 µM | NCI-H226 > 100 µM | SF-539 > 100 µM | SNB-75 > 100 µM | OVCAR-3 > 100 µM | UACC-257 > 100 µM | PC-3 > 100 µM | EKVX > 100 µM | HCT-116 > 100 µM | BT-549 > 100 µM | TK-10 > 100 µM | Hs-578T > 100 µM | SK-MEL-2 > 100 µM | HOP-62 > 100 µM | ACHN > 100 µM | MCF7 > 100 µM | DU-145 > 100 µM | M14 > 100 µM | K562 > 100 µM | SR > 100 µM | SK-MEL-5 > 100 µM | A498 > 100 µM | MDA-N > 100 µM | SW-620 > 100 µM | U-251 > 100 µM | Malme-3M > 100 µM | HL-60 > 100 µM | CCRF-CEM > 100 µM | NCI-H522 > 100 µM | KM12 > 100 µM | MDA-MB-231 > 100 µM | SF-268 > 100 µM | RXF 393 > 100 µM | CAKI-1 > 100 µM | LOX IMVI > 100 µM
> 100 µM: HCT-15
